The values below come from patent publication US20060069155A1, “Method for reducing exacerbations associated with COPD” (priority 2000, published 2006).

“Also recorded” adds a separate entry of the source.

For data set [1], the system named is COPD exacerbations in patients with COPD. Put plainly: Clinical Study B: placebo-controlled, double-blind study of Ariflo 15 mg BID in COPD patients. As to conditions: for Number of Patients Exacerbation-free / Estimated Percentage Exacerbation-Free (Exacerbation-free Survival Rate): 24 weeks, ITT, 15 mg BID; for Estimated Percentage Exacerbation-Free (Exacerbation-free Survival Rate): Kaplan-Meier estimate. Type of data set: in vivo, human. An excerpt: (§1) Acute COPD exacerbations, defined as worsening of COPD symptoms that required changes in treatment including antimicrobial therapy, a short course of oral corticosteroids or other bronchodilator therapy. Exacerbations were categorized to three levels: • Level 1: self-managed by the patient at home by increasing usual medication for COPD. • Level 2: requiring additional treatment prescribed by a family or primary care physician or as a result of a hospital outpatient visit including a visit to the Emergency Room. • Level 3: requiring the patient to be admitted to the hospital for treatment. Clinical trials in COPD patients were carried out to investigate the efficacy of an 15 mg immediate release tablet, BID of Ariflo. […] In each of the studies, patients with COPD entered a 4-week placebo run-in period and were then randomized to receive Ariflo 15 mg twice daily or placebo in a ratio of 2 to 1. Patients were monitored following 1, 2 and 4 weeks of treatment and subsequently at 4-week intervals. Patients were permitted to receive concomitant salbutamol (prn) and/or short acting anticholinergic therapy at a stable dose during these studies. Study B included a 2-week, randomised, double-blind, run-out phase to examine the effects of discontinuation of treatment. Patients who received Ariflo during the initial 24 week period, were randomized (1:1 ratio) to Ariflo 15 mg BID or placebo for the run-out phase; patients who received placebo during the initial 24 weeks, continued on placebo during the run-out phase. Pulmonary function measurements were performed at each visit (with the exception of Week 1). The St. George's Respiratory Questionnaire (SGRQ) was administered at Baseline, and Weeks 12 and 24 (or at the time of withdrawal). Routine compliance, vital sign, and laboratory assessments were performed at each visit. These studies included frequent ECG assessments and extensive monitoring of patients reporting gastrointestinal adverse experiences of potential clinical concern to address concerns about possible effects of SB 207499 on both cardiovascular and gastrointestinal body systems. 12-lead ECG assessments were conducted at screening, prior to dosing at Baseline, and prior to dosing at each visit during the double-blind treatment period. In addition, 12-lead ECGs were performed 3 hours after the administration of drug on the first and last day of dosing. In a subset of patients, 24-hour Holter ECG monitoring was conducted during Run-in and at Weeks 1 and 20. Orthostatic vital signs and faecal occult blood tests were determined for all patients in order to obtain a general incidence of abnormal assessments in this patient population. Orthostatic vital signs were determined at Screening, Baseline and the end of double-blind treatment. Faecal occult blood tests were performed between Screening and Baseline and between 20 weeks and the end of double-blind treatment (24 weeks).

Data set [2] shares this test system. The data set is described as follows: Clinical Study A: placebo-controlled, double-blind 6-month study of Ariflo 15 mg BID in COPD patients. Type of data set: in vivo, human. As to conditions: for Number of Patients Exacerbation-free / Estimated Percentage Exacerbation-Free (Exacerbation-free Survival Rate): 24 weeks, ITT, 15 mg BID; for Estimated Percentage Exacerbation-Free (Exacerbation-free Survival Rate): Kaplan-Meier estimate.
Text: as §1, with “studies.” for “studies. Study B included a 2-week, randomised, double-blind, run-out phase to examine the effects of discontinuation of treatment. Patients who received Ariflo during the initial 24 week period, were randomized (1:1 ratio) to Ariflo 15 mg BID or placebo for the run-out phase; patients who received placebo during the initial 24 weeks, continued on placebo during the run-out phase.”

Data set [3] shares this test system. The data set is described as follows: Clinical Study C: placebo-controlled, double-blind 6-month study of Ariflo 15 mg BID in COPD patients. Type of data set: in vivo, human. As to conditions: for Number of Patients Exacerbation-free / Estimated Percentage Exacerbation-Free (Exacerbation-free Survival Rate): 24 weeks, ITT, 15 mg BID; for Estimated Percentage Exacerbation-Free (Exacerbation-free Survival Rate): Kaplan-Meier estimate.
Text: as §1, with “studies.” for “studies. Study B included a 2-week, randomised, double-blind, run-out phase to examine the effects of discontinuation of treatment. Patients who received Ariflo during the initial 24 week period, were randomized (1:1 ratio) to Ariflo 15 mg BID or placebo for the run-out phase; patients who received placebo during the initial 24 weeks, continued on placebo during the run-out phase.”

The conditions of data set [4]: targeted for the treatment of multi-infarct dementia; 'may include'; cited from earlier work.
The conditions of data set [5]: developed as an antidepressant; cited from earlier work.
[6] abbreviates: 15 mg immediate release tablet BID.

`COc1ccc([C@]2(C#N)CC[C@@H](C(=O)O)CC2)cc1OC1CCCC1` [SB207499, cis-4-cyano-4-[3-(cyclopentyloxy)-4-methoxyphenyl]cyclohexane-1-carboxylic acid]: the “estimated percentages of patients exacerbation-free compared to placebo” value was “significantly greater” in data set [1] (15 mg IR tablet BID, P=0.004) and “significantly greater” in data set [2] (15 mg IR tablet BID, P=0.008). The “incidence of all categories of exacerbations and of more severe exacerbations (Levels 2 and 3) versus placebo” value in data set [1] (setting [6]) and in data set [2] (setting [6]) was “lower incidence” each time. In addition, the “Number of Patients Exacerbation-free” value turned out to be 318 in data set [1] (All Exacerbations, of 469 patients); 367 in data set [1] (Level 2 and 3 Exacerbations); 336 in data set [2] (All Exacerbations, of 431 patients); 364 in data set [2] (Level 2 and 3 Exacerbations); 299 in data set [3] (All Exacerbations, of 474 patients); 354 in data set [3] (Level 2 and 3 Exacerbations). Also, the “Estimated Percentage Exacerbation-Free (Exacerbation-free Survival Rate)” value in data set [1] (All Exacerbations, placebo 51.1) is 63.9%; in data set [1] (Level 2 and 3 Exacerbations, placebo 64.3), 75.5%; in data set [2] (All Exacerbations, placebo 62.4), 74.0%; in data set [2] (Level 2 and 3 Exacerbations, placebo 69.7) it was 81.7%; in data set [3] (All Exacerbations, placebo 56.0), 58.3%; in data set [3] (Level 2 and 3 Exacerbations, placebo 71.0), 70.9%. Besides, the “reduction of the risk of an exacerbation requiring treatment by a physician or hospitalization (Levels 2 and 3)” value in data set [1] (over 26 weeks, P=0.004) came out at 32%. Besides, the “reduction of the risk of having an exacerbation relative to placebo” value is listed as 30% in data set [1] (over 26 weeks, P=0.005) and 39% in data set [2] (15 mg immediate release tablet BID, Kaplan-Meier estimates, P=0.002). Further, the “reduction of the risk of an exacerbation requiring treatment by a physician or hospitalization” value in data set [2] (15 mg immediate release tablet BID, Kaplan-Meier estimates, P=0.001) is given as 45%. Also, the affect on exacerbations result in data set [3] (15 mg BID over 6 months) is on record as “marginal”. In addition, the “efficacy in treating COPD” value in data set [3] (15 mg BID over 6 months) was “equivocal”.
For the compound `CCCCn1c(=O)c2c(ncn2CC(C)=O)n(CCCC)c1=O` [denbufylline], the side effects entry in data set [4] was “pyrosis, nausea and emesis”.
On to `COc1ccc(C2CNC(=O)C2)cc1OC1CCCC1` (stereo not drawn) [rolipram], for which the “side effects in clinical studies” value in data set [5] is “psychotropic activity; also recorded: gastrointestinal effects, e.g., pyrosis, nausea and emesis”.
